# Where “and” joins values, the source holds several entries; their conditions need not be identical. Identical values can stand only once.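 Each compound was tested at five concentrations against cells in 96-well plates for 48 hours. GI50: concentration for 50% inhibition of growth. TGI: total growth inhibition.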
# Tests used:
# Experiment in all cases: inhibition of tumour cell growth, NCI panel, 48 h
# SF-539 CNS = system: SF-539 CNS
# SK-MEL-2 melanoma = system: SK-MEL-2 melanoma
# ACHN renal = system: ACHN renal
# HCT-15 colon = system: HCT-15 colon
# RXF 393 renal = system: RXF 393 renal
# MDA-MB-435 = system: MDA-MB-435
# MCF7 breast = system: MCF7 breast
# DU-145 prostate = system: DU-145 prostate
# SNB-19 CNS = system: SNB-19 CNS
# SF-295 CNS = system: SF-295 CNS
Structure (SMILES),GI50 (SF-539 CNS),TGI (SF-539 CNS),GI50 (SK-MEL-2 melanoma),TGI (SK-MEL-2 melanoma),GI50 (ACHN renal),TGI (ACHN renal),GI50 (HCT-15 colon),TGI (HCT-15 colon),GI50 (RXF 393 renal),TGI (RXF 393 renal),GI50 (MDA-MB-435),TGI (MDA-MB-435),GI50 (MCF7 breast),TGI (MCF7 breast),GI50 (DU-145 prostate),TGI (DU-145 prostate),GI50 (SNB-19 CNS),TGI (SNB-19 CNS),GI50 (SF-295 CNS),TGI (SF-295 CNS)
O=C(OCC1=CC(=O)c2ccccc2C1=O)c1ccccc1,12.2 µM,25.3 µM,12.3 µM,35.9 µM,15 µM,28.4 µM,10.6 µM,29.5 µM,13.6 µM,26.5 µM,1.98 µM,3.66 µM,13.2 µM,26.8 µM,1.83 µM,3.6 µM,10.3 µM,22.4 µM,6.41 µM,20.5 µM
CCOC(=O)C(Cc1cc(OC)c(CC(C(=O)OCC)C(=O)OCC)cc1OC)C(=O)OCC,–,> 100 µM,–,> 100 µM,–,> 100 µM,–,> 100 µM,–,97.7 µM,–,> 100 µM,–,> 100 µM,–,> 100 µM,–,> 100 µM,–,> 100 µM
CN(Cc1cnc2nc(N)nc(N)c2n1)c1c(Cl)cc(C(=O)NC(CCC(=O)O)C(=O)O)cc1Cl (stereo not drawn),< 0.01 µM,> 100 µM,> 100 µM,> 100 µM,< 0.01 µM,> 100 µM,< 0.01 µM,> 100 µM,0.731 µM,> 100 µM,< 0.01 µM,> 100 µM,< 0.01 µM,> 100 µM,< 0.01 µM,> 100 µM,0.0395 µM,> 100 µM,0.0156 µM,–
CC(=O)c1nc(-c2ccc(C[C@@H](CNC(=O)CN(C)C)NC(=O)c3ccc(OC(C)C)c(Cl)c3)cc2)cn1C,0.0341 µM,3.03 µM,0.061 µM,15.5 µM,1.01 µM,20.2 µM,0.0899 µM,19.3 µM,0.0628 µM,16.6 µM,0.0297 µM,14 µM,0.0398 µM,14.4 µM,0.032 µM,11.4 µM,0.0439 µM,17.7 µM,0.0338 µM,7.75 µM
CCS(=O)(=O)c1cccc(-c2cc(C(=O)NC3CCN(C)CC3)c(C)c3[nH]c4ncc(C)cc4c23)c1,0.329 µM and 0.239 µM,1.92 µM and 1.39 µM,0.694 µM and 0.673 µM,3.07 µM and 3.38 µM,9.87 µM and 2.64 µM,> 10 µM and 10.6 µM,13.6 µM,> 10 µM and 45.8 µM,0.957 µM and 0.512 µM,3.11 µM and 1.56 µM,0.722 µM and 0.304 µM,> 10 µM and 4.54 µM,0.105 µM and 0.0631 µM,4.27 µM and 5.96 µM,1.21 µM and 0.745 µM,3.48 µM and 2.35 µM,0.302 µM and 0.25 µM,> 10 µM and 6.67 µM,1.08 µM and 0.832 µM,> 10 µM and 5.63 µM
CSC(=S)NCc1cn(C)c2ccccc12,25 µM,62.3 µM,34.2 µM,> 100 µM,21.9 µM,> 100 µM,26.8 µM,> 100 µM,17.9 µM,59.6 µM,27.8 µM,> 100 µM,24.3 µM,90.9 µM,29.1 µM,> 100 µM,40.3 µM,> 100 µM,33.5 µM,> 100 µM
CCOC(=O)/C=C/c1ccc([N+](=O)[O-])o1,2.7 µM,7.4 µM,11.3 µM,36.8 µM,1.75 µM,3.8 µM,2.03 µM,7.53 µM,1.82 µM,3.86 µM,2.1 µM,4.67 µM,2.74 µM,17.2 µM,3.17 µM,11.1 µM,29 µM,> 100 µM,19.7 µM,48.2 µM
COc1ccc(-c2cn3ccnc3c(-c3ccc(Cl)cc3)n2)cc1,8.97 µM,58 µM,35.2 µM,> 100 µM,10.5 µM,47 µM,3.16 µM,> 100 µM,28.2 µM,> 100 µM,2.56 µM,8.62 µM,5.56 µM,> 100 µM,11.7 µM,> 100 µM,14.4 µM,> 100 µM,23.1 µM,85.3 µM
Cc1c(-c2ccc(-c3ccccc3F)cc2)nc2ccc(F)cc2c1C(=O)O,0.0959 µM and 0.5 µM,25.6 µM and 110 µM and 29.9 µM,135 µM,148 µM and 909 µM,0.617 µM and 1.67 µM,181 µM and 492 µM,0.0764 µM and 0.5 µM,114 µM and 153 µM,76 µM,121 µM and 236 µM,1.28 µM and 0.371 µM and 2.48 µM,101 µM and 128 µM,0.445 µM and 0.979 µM,170 µM and 405 µM,0.867 µM and 1.18 µM,119 µM and 343 µM,0.864 µM and 1.73 µM,164 µM and 513 µM,0.163 µM and 1.37 µM,43.6 µM and 48.6 µM and 210 µM
CCCC(=O)Nc1cc(/C=C/C(=O)N2C[C@@H]3C[C@]34C2=CC(=O)c2[nH]cc(C)c24)n(C)c1,–,4.59 µM,0.151 µM,0.817 µM and 0.287 µM,–,0.796 µM,–,9.89 µM,0.111 µM,0.298 µM and 0.238 µM,0.184 µM,1.05 µM and 0.471 µM,0.0208 µM,–,0.0252 µM,–,0.18 µM,25 µM and 11.3 µM,–,25 µM
CC(C)(O)c1cc(Nc2cc(Oc3cn(C4CC4)nc3C3CCOCC3)ccn2)ccn1,> 100 µM,> 100 µM,> 100 µM,> 100 µM,> 100 µM,> 100 µM,> 100 µM,> 100 µM,68.4 µM,> 100 µM,> 100 µM,> 100 µM,35.3 µM,> 100 µM,> 100 µM,> 100 µM,> 100 µM,> 100 µM,64.3 µM,> 100 µM
CSCc1ncc(-c2ccc(C(F)(F)F)cc2)c(NC2CCCCCC2)n1,> 10 µM,> 10 µM,> 10 µM,> 10 µM,> 10 µM,> 10 µM,> 10 µM,> 10 µM,> 10 µM,> 10 µM,> 10 µM,> 10 µM,> 10 µM,> 10 µM,> 10 µM,> 10 µM,> 10 µM,> 10 µM,> 10 µM,> 10 µM
C/C(=N\NC(=S)N1CCCC1)c1ccccn1,< 0.0265 µM,3.08 µM,0.242 µM,14.4 µM,< 0.01 µM,7.53 µM,< 0.01 µM,18.9 µM,0.188 µM,7.14 µM,0.0299 µM,21.8 µM,< 0.01 µM,7.55 µM,0.0428 µM,14.8 µM,0.112 µM,14.7 µM,< 0.01 µM,5.9 µM
Cc1cc(C)nc(NC(=O)COc2ccc(Cl)cc2)c1,–,> 100 µM,–,> 100 µM,–,> 100 µM,–,> 100 µM,–,> 100 µM,–,> 100 µM,–,> 100 µM,–,> 100 µM,–,> 100 µM,–,> 100 µM
COc1ccc2c(CN3CCCC[C@H]3O)cc3cc4c(cc3c2c1)OCO4,0.375 µM,1.83 µM,0.291 µM,0.889 µM,0.222 µM,2.36 µM,0.369 µM,10.6 µM,0.191 µM,0.95 µM,0.422 µM,1.62 µM,0.314 µM,3.22 µM,0.475 µM,7.24 µM,0.445 µM,7.45 µM,0.354 µM,2.81 µM

# From PubChem BioAssay (NCI)
